Test results as given in PMC314469, “Protein Interaction Networks by Proteome Peptide Scanning” (PLoS Biology, 2004).

Test system: Myo5 SH3 domain
Assay: SPOT analysis of cellulose-bound peptides (WISE), Myo5 SH3 domain (Dataset S4)
Type: binding, Saccharomyces cerevisiae
Conditions: for The normalized value in BLU units: Myo5 SH3 domain
[1] = SPOT analysis of cellulose-bound peptides probed with Myo5 SH3 domain, normalized value
[2] = SPOT analysis of cellulose-bound 14-mer yeast proteome peptides, normalized value, mean where the peptide was synthesized more than once
[3] = SPOT analysis of membrane-synthesized peptides probed with Myo5 SH3 domain, normalized value
[4] = SPOT analysis of membrane-bound peptides, normalized value (see methods)

IEFDLSKPFTPFQQ
The normalized value in BLU units (SPOT analysis, Myo5 SH3) [1]: 134.1 BLU

IEITHSEPAIPYRE
The normalized value in BLU units [2]: 114.3 BLU

IEPDFIEPDAPLAA
The normalized value in BLU units (SPOT analysis, Myo5 SH3) [1]: 61.4 BLU

IERVWNGPVEPSDE
The normalized value in BLU units (SPOT analysis, Myo5 SH3) [1]: 180.2 BLU

IESFRERPLEPPRK
The normalized value in BLU units (SPOT analysis, Myo5 SH3) [3]: 98.7 BLU

IESLREIPYGPDFD
The normalized value in BLU units (SPOT analysis, Myo5 SH3) [3]: 115.6 BLU

IEVPMEYPFKPPKM
The normalized value in BLU units [2]: 384.5 BLU

IFFKLIHPFLPILH
The normalized value in BLU units [2]: 503.3 BLU

IFQSLLHPELPIII
The normalized value in BLU units [2]: 239.9 BLU

IFVTRYLPYFPIMY
The normalized value in BLU units [4]: 156.7 BLU

IGKSKSAPPIPEDT
The normalized value in BLU units [2]: 243.5 BLU

IGSPRHAPSRPDSI
The normalized value in BLU units (SPOT analysis, Myo5 SH3) [3]: 193.4 BLU

IKMSRSPPRPPSLK
The normalized value in BLU units (SPOT analysis, Myo5 SH3) [3]: 17731.3 BLU

IKYFKKFPKDPLAM
The normalized value in BLU units [4]: 237.4 BLU

ILAVKKNPQSPMYT
The normalized value in BLU units [4]: 175.4 BLU

ILCAYNSPKVPADI
The normalized value in BLU units (SPOT analysis, Myo5 SH3) [1]: 81.4 BLU

ILEGKFEPVIPREW
The normalized value in BLU units [4]: 93.2 BLU

ILERKNIPRQPAIR
The normalized value in BLU units [4]: 602.9 BLU

ILFERILPILPVES
The normalized value in BLU units [2]: 339.9 BLU

ILHQLGAPSIPENL
The normalized value in BLU units (SPOT analysis, Myo5 SH3) [1]: 174.0 BLU

ILIFLWIPDDPSKA
The normalized value in BLU units (SPOT analysis, Myo5 SH3) [1]: 1371.6 BLU

ILKNRMNPEKPYEL
The normalized value in BLU units (SPOT analysis, Myo5 SH3) [3]: 321.6 BLU

ILPPRIVPAIPKKA
The normalized value in BLU units (SPOT analysis, Myo5 SH3) [3]: 3670.9 BLU

ILPVLNIPLPPQEK
The normalized value in BLU units (SPOT analysis, Myo5 SH3) [1]: 21.6 BLU

ILQELSLPSRPVMP
The normalized value in BLU units (SPOT analysis, Myo5 SH3) [1]: 51.9 BLU

ILQILFEPMPPFNS
The normalized value in BLU units [2]: 200.5 BLU

ILTCLPVPPPPVRP
The normalized value in BLU units (SPOT analysis, Myo5 SH3) [1]: 616.9 BLU

ILTLLKMPEVPNSV
The normalized value in BLU units [2]: 172.2 BLU

ILVAYGLPVSPDEK
The normalized value in BLU units (SPOT analysis, Myo5 SH3) [1]: 166.6 BLU

ILVPHLDPIDPWEA
The normalized value in BLU units [2]: 166.0 BLU

IMDAKFHPFKPQLF
The normalized value in BLU units [2]: 246.2 BLU

INGEKACPFLPSSL
The normalized value in BLU units (SPOT analysis, Myo5 SH3) [3]: 183.7 BLU

INIAKAHPNFPIAL
The normalized value in BLU units [4]: 195.5 BLU

INNNKMRPHLPPLS
The normalized value in BLU units [4]: 1004.0 BLU

INNTRLSPNSPTPP
The normalized value in BLU units [2]: 139.6 BLU

INTFKTLPTKPEMQ
The normalized value in BLU units (SPOT analysis, Myo5 SH3) [3]: 167.1 BLU

INVEREAPMFPVPY
The normalized value in BLU units [2]: 148.9 BLU

IPAPKLVPPPPRTR
The normalized value in BLU units [4]: 82308.4 BLU

IPLPHQPPPLPIYS
The normalized value in BLU units (SPOT analysis, Myo5 SH3) [1]: 53588.9 BLU

IPTSHAPPLPPTAP
The normalized value in BLU units [2]: 43593.6 BLU

IPVGYVTPKFPSLY
The normalized value in BLU units [2]: 21.6 BLU

IPYEKRDPTSPAPL
The normalized value in BLU units (SPOT analysis, Myo5 SH3) [3]: 114.1 BLU

IQQNKQGPKIPFYL
The normalized value in BLU units (SPOT analysis, Myo5 SH3) [3]: 86.9 BLU

IRTYKVVPLGPKAG
The normalized value in BLU units [4]: 100.2 BLU

ISADKGFPLIPSGY
The normalized value in BLU units (SPOT analysis, Myo5 SH3) [3]: 113.3 BLU

ISHNKLSPSEPILC
The normalized value in BLU units [4]: 206.2 BLU

ISNRRPVPRRPSQP
The normalized value in BLU units [4]: 377.4 BLU

ITAEKSAPTSPEVY
The normalized value in BLU units (SPOT analysis, Myo5 SH3) [3]: 94.2 BLU

ITDTKLFPGNPNLM
The normalized value in BLU units [2]: 94.6 BLU

ITRARYMPQDPNIV
The normalized value in BLU units (SPOT analysis, Myo5 SH3) [3]: 190.2 BLU

ITSIRGSPSLPKNK
The normalized value in BLU units (SPOT analysis, Myo5 SH3) [3]: 370.3 BLU

IVNEKRTPALPSNL
The normalized value in BLU units (SPOT analysis, Myo5 SH3) [3]: 101.8 BLU

IYHCKKQPLVPIGC
The normalized value in BLU units [4]: 293.5 BLU

KAALKYHPDKPTGD
The normalized value in BLU units (SPOT analysis, Myo5 SH3) [3]: 155.5 BLU

KAGSFGAPSSPTSG
The normalized value in BLU units [2]: 123.7 BLU

KAIVWRLPKMPKIK
The normalized value in BLU units [2]: 515.4 BLU

KALPKRRPSPPLQS
The normalized value in BLU units (SPOT analysis, Myo5 SH3) [3]: 1137.8 BLU

KALWKIQPYLPEFS
The normalized value in BLU units (SPOT analysis, Myo5 SH3) [3]: 146.1 BLU

KAPYLVQPNVPEKH
The normalized value in BLU units [2]: 130.6 BLU

KASSMPAPPPPPPP
The normalized value in BLU units [2]: 10514.9 BLU

KAVHLYFPILPHCG
The normalized value in BLU units [2]: 125.3 BLU

KDEVKLHPPEPKDL
The normalized value in BLU units [4]: 163.7 BLU

KDFSKNAPYNPSEV
The normalized value in BLU units [4]: 142.6 BLU

KDKARGNPEKPPYW
The normalized value in BLU units [4]: 59.9 BLU

KEFFRLTPNQPVGL
The normalized value in BLU units [4]: 43.8 BLU

KEFRFIFPLQPLFI
The normalized value in BLU units (SPOT analysis, Myo5 SH3) [1]: 749.7 BLU

KELIYKQPSGPGLV
The normalized value in BLU units (SPOT analysis, Myo5 SH3) [1]: 79.3 BLU

KELLLIPPGFPTKN
The normalized value in BLU units [2]: 122.9 BLU

KELNLTGPKVPEDI
The normalized value in BLU units [2]: 102.4 BLU

KELPFTGPSIPFEN
The normalized value in BLU units (SPOT analysis, Myo5 SH3) [1]: 338.9 BLU

KEQNWKHPLLPLLK
The normalized value in BLU units (SPOT analysis, Myo5 SH3) [1]: 321.0 BLU

KESKFGTPEKPLSD
The normalized value in BLU units (SPOT analysis, Myo5 SH3) [1]: 249.8 BLU
